pIC50: −log10 of the molar value.
Experiments:
MDM2 = target: T1, MDM2 (Homo sapiens, UniProt Q00987); experiment: Inhibition test of MDM2-P53 (GST-MDM2, Biotin-P53, Anti-GST-Tb, SA-XL665); assay type: binding; details: for inhibitory effect on MDM2 compared with positive control compound HDM201: labels are Example numbers, the compounds with S-configuration are meant
T1 construct: made in house
Summary of the method: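 Compounds, serially diluted 5-fold (twelve concentrations), were shaken for 90 min at 25° C with a mix of GST-MDM2 (4 nM final), Biotin-P53, anti-GST-Tb and SA-XL665. Buffer: 1×PBS, 0.1% BSA, 5 mM DTT, 1 mM AEBSF; signal read on a microplate reader.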

[1] = tested on: human osteosarcoma cell line SJSA-1; experiment: Inhibition of proliferation of human osteosarcoma cell line SJSA-1 (DAPI staining, In Cell Analyzer); details: for inhibitory effect on human osteosarcoma cell line SJSA-1 compared with positive control compound HDM201: labels are Example numbers, the compounds with S-configuration are meant; for IC50: Homo sapiens, SJSA-1, 72 h, read-out: IC50 (nM), inhibitory activity on proliferation of human osteosarcoma cell line SJSA-1, SJSA-1, incubated 72 h

T1 sequence (Q00987 whole entry): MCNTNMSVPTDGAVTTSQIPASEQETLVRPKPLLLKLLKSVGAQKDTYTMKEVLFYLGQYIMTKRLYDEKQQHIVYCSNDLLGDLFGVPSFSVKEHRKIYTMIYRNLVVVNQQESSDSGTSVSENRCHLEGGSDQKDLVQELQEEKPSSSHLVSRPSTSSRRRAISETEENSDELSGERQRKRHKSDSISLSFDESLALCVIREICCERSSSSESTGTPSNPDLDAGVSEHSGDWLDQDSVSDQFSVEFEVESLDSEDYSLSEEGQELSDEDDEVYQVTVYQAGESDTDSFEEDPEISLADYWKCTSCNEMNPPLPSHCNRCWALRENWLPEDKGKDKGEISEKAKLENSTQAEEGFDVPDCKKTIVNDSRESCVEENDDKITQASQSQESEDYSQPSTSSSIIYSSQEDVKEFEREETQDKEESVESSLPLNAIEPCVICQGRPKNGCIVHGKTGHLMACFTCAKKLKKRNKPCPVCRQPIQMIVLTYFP

In the case of `COc1ccc(-c2nc3c(n2C(C)C)C2(C(=O)Nc4cc(Cl)ccc42)N(c2cc(Cl)cnc2C)C3=O)c(OC)c1` (stereo not shown) [Example 61, 6-chloro-5′-(5-chloro-2-methylpyridin-3-yl)-2′-(2,4-dimethoxyphenyl)-3′-isopropyl-3′H-spiro[dihydroindole-3,4′-pyrrolo[3,4-d]imidazole]-2,6′(5′H)-dione], the “inhibitory effect on MDM2 compared with positive control compound HDM201” value (MDM2) was “better” and the “inhibitory effect on human osteosarcoma cell line SJSA-1 compared with positive control compound HDM201” value [1] was “better”.
In the case of `COc1cc(OC(C)C)ncc1-c1nc2c(n1C(C)C)C1(C(=O)Nc3cc(Cl)ccc31)N(c1cc(Cl)ccc1C)C2=O` (stereo not shown) [Example 69, 6-chloro-5′-(5-chloro-2-methylphenyl)-2′-(6-isopropoxy-4-methoxypyridin-3-yl)-3′-isopropyl-3′H-spiro[dihydroindole-3,4′-pyrrolo[3,4-d]imidazole]-2,6′(5′H)-dione], the “inhibitory effect on MDM2 compared with positive control compound HDM201” value (MDM2) was “better” and the “inhibitory effect on human osteosarcoma cell line SJSA-1 compared with positive control compound HDM201” value [1] was “better”.
With `CCOc1cc(OC)c(-c2nc3c(n2C(C)C)C2(C(=O)Nc4cc(Cl)ccc42)N(c2cc(Cl)ccc2C)C3=O)cn1` (stereo not shown) [Example 72, 6-chloro-5′-(5-chloro-2-methylphenyl)-2′-(6-ethoxy-4-methoxypyridin-3-yl)-3′-isopropyl-3′H-spiro[dihydroindole-3,4′-pyrrolo[3,4-d]imidazole]-2,6′(5′H)-dione] the “inhibitory effect on MDM2 compared with positive control compound HDM201” value (MDM2) was “better” and the “inhibitory effect on human osteosarcoma cell line SJSA-1 compared with positive control compound HDM201” value [1] was “better”.
With `COc1cc(N)c(C)cc1-c1nc2c(n1C(C)C)C1(C(=O)Nc3cc(Cl)ccc31)N(c1cc(Cl)ccc1C)C2=O` (stereo not shown) [Example 74, 2′-(4-amino-2-methoxy-5-methylphenyl)-6-chloro-5′-(5-chloro-2-methylphenyl)-3′-isopropyl-3′H-spiro[dihydroindole-3,4′-pyrrolo[3,4-d]imidazole]-2,6′(5′H)-dione] the “inhibitory effect on MDM2 compared with positive control compound HDM201” value (MDM2) was “better” and the “inhibitory effect on human osteosarcoma cell line SJSA-1 compared with positive control compound HDM201” value [1] was “better”.
With `COc1cc(N)c(F)cc1-c1nc2c(n1C(C)C)C1(C(=O)Nc3cc(Cl)ccc31)N(c1cc(Cl)ccc1C)C2=O` (stereo not shown) [Example 75, 2′-(4-amino-5-fluoro-2-methoxyphenyl)-6-chloro-5′-(5-chloro-2-methylphenyl)-3′-isopropyl-3′H-spiro[dihydroindole-3,4′-pyrrolo[3,4-d]imidazole]-2,6′(5′H)-dione] the “inhibitory effect on MDM2 compared with positive control compound HDM201” value (MDM2) was “better” and the “inhibitory effect on human osteosarcoma cell line SJSA-1 compared with positive control compound HDM201” value [1] was “better”.
For `COc1cc(N(C)C)c(F)cc1-c1nc2c(n1C(C)C)C1(C(=O)Nc3cc(Cl)ccc31)N(c1cc(Cl)ccc1C)C2=O` (stereo not shown) [Example 78], the “inhibitory effect on MDM2 compared with positive control compound HDM201” value (MDM2) was “better” and the “inhibitory effect on human osteosarcoma cell line SJSA-1 compared with positive control compound HDM201” value [1] was “better”.
`COc1nc(N(C)C)ncc1-c1nc2c(n1C(C)C)C1(C(=O)Nc3cc(Cl)ccc31)N(c1cc(Cl)ccc1C)C2=O` (stereo not shown) [Example 82, 6-chloro-5′-(5-chloro-2-methylphenyl)-2′-(2-(dimethylamino)-4-methoxypyrimidin-5-yl)-3′-isopropyl-3′H-spiro[dihydroindole-3,4′-pyrrolo[3,4-d]imidazole]-2,6′(5′H)-dione] was tested, and the “inhibitory effect on MDM2 compared with positive control compound HDM201” value (MDM2) was “better” and the “inhibitory effect on human osteosarcoma cell line SJSA-1 compared with positive control compound HDM201” value [1] was “better”.
With `COc1ccc(C(=O)O)cc1-c1nc2c(n1C(C)C)C1(C(=O)Nc3cc(Cl)ccc31)N(c1cc(Cl)ccc1C)C2=O` (stereo not shown) [Example 84, 3-(6-chloro-5′-(5-chloro-2-methylphenyl)-3′-isopropyl-2,6′-dioxo-5′,6′-dihydro-3′H-spiro[dihydroindole-3,4′-pyrrolo[3,4-d]imidazole]-2′-yl)-4-methoxybenzoic acid] the pIC50 (MDM2) was 8.42 and the IC50 [1] was 2610 nM.
In the case of `COc1cc(OC)c(-c2nc3c(n2C(C)C)C2(C(=O)Nc4cc(Cl)ccc42)N(c2cc(Cl)ccc2C)C3=O)cc1F` (stereo not shown) [Example 92, 6-chloro-5′-(5-chloro-2-methylphenyl)-2′-(5-fluoro-2,4-dimethoxyphenyl)-3′-isopropyl-3′H-spiro[dihydroindole-3,4′-pyrrolo[3,4-d]imidazole]-2,6′(5′H)-dione], the “inhibitory effect on MDM2 compared with positive control compound HDM201” value (MDM2) was “better” and the “inhibitory effect on human osteosarcoma cell line SJSA-1 compared with positive control compound HDM201” value [1] was “better”.
For `CCOc1cc(OC)c(-c2nc3c(n2C(C)C)C2(C(=O)Nc4cc(Cl)ccc42)N(c2cc(Cl)cnc2C)C3=O)cn1` (stereo not shown) [Example 96, 6-chloro-5′-(5-chloro-2-methylpyridin-3-yl)-2′-(6-ethoxy-4-methoxypyridin-3-yl)-3′-isopropyl-3′H-spiro[dihydroindole-3,4′-pyrrolo[3,4-d]imidazole]-2,6′(5′H)-dione], the “inhibitory effect on MDM2 compared with positive control compound HDM201” value (MDM2) was “better” and the “inhibitory effect on human osteosarcoma cell line SJSA-1 compared with positive control compound HDM201” value [1] was “better”.
In the case of `CCOc1cc(OC)c(-c2nc3c(n2C(C)C)C2(C(=O)Nc4cc(Cl)ccc42)N(c2cc(Cl)ccc2F)C3=O)cn1` (stereo not shown) [Example 98, 6-chloro-5′-(5-chloro-2-fluorophenyl)-2′-(6-ethoxy-4-methoxypyridin-3-yl)-3′-isopropyl-3′H-spiro[dihydroindole-3,4′-pyrrolo[3,4-d]imidazole]-2,6′(5′H)-dione], the “inhibitory effect on MDM2 compared with positive control compound HDM201” value (MDM2) was “better” and the “inhibitory effect on human osteosarcoma cell line SJSA-1 compared with positive control compound HDM201” value [1] was “better”.
For `CCOc1cc(OC)c(-c2nc3c(n2C(C)C)C2(C(=O)Nc4cc(Cl)ccc42)N(c2cccc(Cl)c2)C3=O)cn1` (stereo not shown) [Example 102, 6-chloro-5′-(3-chlorophenyl)-2′-(6-ethoxy-4-methoxypyridin-3-yl)-3′-isopropyl-3′H-spiro[dihydroindole-3,4′-pyrrolo[3,4-d]imidazole]-2,6′(5′H)-dione], the “inhibitory effect on MDM2 compared with positive control compound HDM201” value (MDM2) was “better” and the “inhibitory effect on human osteosarcoma cell line SJSA-1 compared with positive control compound HDM201” value [1] was “better”.
With `COc1cc(C2CC2)ncc1-c1nc2c(n1C(C)C)C1(C(=O)Nc3cc(Cl)ccc31)N(c1cc(Cl)ccc1C)C2=O` (stereo not shown) [Example 103, 6-chloro-5′-(5-chloro-2-methylphenyl)-2′-(6-cyclopropyl-4-methoxypyridin-3-yl)-3′-isopropyl-3′H-spiro[dihydroindole-3,4′-pyrrolo[3,4-d]imidazole]-2,6′(5′H)-dione] the “inhibitory effect on MDM2 compared with positive control compound HDM201” value (MDM2) was “better” and the “inhibitory effect on human osteosarcoma cell line SJSA-1 compared with positive control compound HDM201” value [1] was “better”.
`COc1cc(OC2CC2)ncc1-c1nc2c(n1C(C)C)C1(C(=O)Nc3cc(Cl)ccc31)N(c1cc(Cl)ccc1C)C2=O` (stereo not shown) [Example 110, 6-chloro-5′-(5-chloro-2-methylphenyl)-2′-(6-cyclopropoxy-4-methoxypyridin-3-yl)-3′-isopropyl-3′H-spiro[dihydroindole-3,4′-pyrrolo[3,4-d]imidazole]-2,6′(5′H)-dione] was tested, and the “inhibitory effect on MDM2 compared with positive control compound HDM201” value (MDM2) was “better” and the “inhibitory effect on human osteosarcoma cell line SJSA-1 compared with positive control compound HDM201” value [1] was “better”.
For `COc1cc(N(C)C)ncc1-c1nc2c(n1C(C)C)C1(C(=O)Nc3cc(Cl)ccc31)N(c1cccc(Cl)c1)C2=O` (stereo not shown) [Example 113, 6-chloro-5′-(3-chlorophenyl)-2′-(6-(dimethylamino)-4-methoxypyridin-3-yl)-3′-isopropyl-3′H-spiro[dihydroindole-3,4′-pyrrolo[3,4-d]imidazole]-2,6′(5′H)-dione], the “inhibitory effect on MDM2 compared with positive control compound HDM201” value (MDM2) was “better” and the “inhibitory effect on human osteosarcoma cell line SJSA-1 compared with positive control compound HDM201” value [1] was “better”.
In the case of `COc1cc(OC)c(-c2nc3c(n2C(C)C)C2(C(=O)Nc4cc(Cl)ccc42)N(c2cccc(Cl)c2)C3=O)cn1` (stereo not shown) [Example 115, 6-chloro-5′-(3-chlorophenyl)-2′-(4,6-dimethoxypyridin-3-yl)-3′-isopropyl-3′H-spiro[dihydroindole-3,4′-pyrrolo[3,4-d]imidazole]-2,6′(5′H)-dione], the “inhibitory effect on MDM2 compared with positive control compound HDM201” value (MDM2) was “better” and the “inhibitory effect on human osteosarcoma cell line SJSA-1 compared with positive control compound HDM201” value [1] was “better”.
In the case of `CCc1cc(-c2nc3c(n2C(C)C)C2(C(=O)Nc4cc(Cl)ccc42)N(c2cc(Cl)ccc2C)C3=O)c(OC)cc1N(C)C` (stereo not shown) [Example 125, 6-chloro-5′-(5-chloro-2-methylphenyl)-2′-(4-(dimethylamino)-5-ethyl-2-methoxyphenyl)-3′-isopropyl-3′H-spiro[dihydroindole-3,4′-pyrrolo[3,4-d]imidazole]-2,6′(5′H)-dione], the pIC50 (MDM2) was 7.68 and the IC50 [1] was 60.3 nM.
With `COc1nc(OC(C)C)ncc1-c1nc2c(n1C(C)C)C1(C(=O)Nc3cc(Cl)ccc31)N(c1cc(Cl)ccc1C)C2=O` (stereo not shown) [Example 126, 6-chloro-5′-(5-chloro-2-methylphenyl)-2′-(2-isopropoxy-4-methoxypyrimidin-5-yl)-3′-isopropyl-3′H-spiro[dihydroindole-3,4′-pyrrolo[3,4-d]imidazole]-2,6′(5′H)-dione] the “inhibitory effect on MDM2 compared with positive control compound HDM201” value (MDM2) was “better” and the “inhibitory effect on human osteosarcoma cell line SJSA-1 compared with positive control compound HDM201” value [1] was “better”.
`COc1cc(OC)c(-c2nc3c(n2C(C)C)C2(C(=O)Nc4cc(Cl)ccc42)N(c2cc(Cl)cnc2C)C3=O)cn1` (stereo not shown) [Example 131, 6-chloro-5′-(5-chloro-2-methylpyridin-3-yl)-2′-(4,6-dimethoxypyridin-3-yl)-3′-isopropyl-3′H-spiro[dihydroindole-3,4′-pyrrolo[3,4-d]imidazole]-2,6′(5′H)-dione] was tested, and the “inhibitory effect on MDM2 compared with positive control compound HDM201” value (MDM2) was “better” and the “inhibitory effect on human osteosarcoma cell line SJSA-1 compared with positive control compound HDM201” value [1] was “better”.
`COc1cc(OC(C)C)ncc1-c1nc2c(n1C(C)C)C1(C(=O)Nc3cc(Cl)ccc31)N(c1cc(Cl)cnc1C)C2=O` (stereo not shown) [Example 137, 6-chloro-5′-(5-chloro-2-methylpyridin-3-yl)-2′-(6-isopropoxy-4-methoxypyridin-3-yl)-3′-isopropyl-3′H-spiro[dihydroindole-3,4′-pyrrolo[3,4-d]imidazole]-2,6′(5′H)-dione] was tested, and the “inhibitory effect on MDM2 compared with positive control compound HDM201” value (MDM2) was “better” and the “inhibitory effect on human osteosarcoma cell line SJSA-1 compared with positive control compound HDM201” value [1] was “better”.

Reference: patent US11339171B2, “MDM2 inhibitors” (Gan & Lee Pharmaceuticals, priority 2017, dated 2022)
